Here are results for 15 compounds from US20240208992A1, “MACROCYCLES AS CFTR MODULATORS” (Idorsia Pharmaceuticals Ltd, priority 2021, published 2024).

The test addresses human F508del-CFTR (Homo sapiens, UniProt P13569, DEL508-508). The test can be described thus: F508del-CFTR cell surface expression (corrector activity), DiscoveRx ß-galactosidase complementation chemiluminescence assay in recombinant U2OS cell line.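 As to all read-outs here: U2OS cells co-expressing ProLink-tagged F508del-CFTR and a membrane-anchored enzyme acceptor, where more surface CFTR restores β-galactosidase activity measured by chemiluminescence.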 As to conditions: for EC50: EC50, F508del-CFTR cell surface expression, U2OS cells, 16h compound incubation, geomean values; for Emax: U2OS, in relation to Emax of corrector lumacaftor (=100%), arithmetic mean values.

Sequence of human F508del-CFTR (P13569 with tags, fused parts or gaps DEL508-508): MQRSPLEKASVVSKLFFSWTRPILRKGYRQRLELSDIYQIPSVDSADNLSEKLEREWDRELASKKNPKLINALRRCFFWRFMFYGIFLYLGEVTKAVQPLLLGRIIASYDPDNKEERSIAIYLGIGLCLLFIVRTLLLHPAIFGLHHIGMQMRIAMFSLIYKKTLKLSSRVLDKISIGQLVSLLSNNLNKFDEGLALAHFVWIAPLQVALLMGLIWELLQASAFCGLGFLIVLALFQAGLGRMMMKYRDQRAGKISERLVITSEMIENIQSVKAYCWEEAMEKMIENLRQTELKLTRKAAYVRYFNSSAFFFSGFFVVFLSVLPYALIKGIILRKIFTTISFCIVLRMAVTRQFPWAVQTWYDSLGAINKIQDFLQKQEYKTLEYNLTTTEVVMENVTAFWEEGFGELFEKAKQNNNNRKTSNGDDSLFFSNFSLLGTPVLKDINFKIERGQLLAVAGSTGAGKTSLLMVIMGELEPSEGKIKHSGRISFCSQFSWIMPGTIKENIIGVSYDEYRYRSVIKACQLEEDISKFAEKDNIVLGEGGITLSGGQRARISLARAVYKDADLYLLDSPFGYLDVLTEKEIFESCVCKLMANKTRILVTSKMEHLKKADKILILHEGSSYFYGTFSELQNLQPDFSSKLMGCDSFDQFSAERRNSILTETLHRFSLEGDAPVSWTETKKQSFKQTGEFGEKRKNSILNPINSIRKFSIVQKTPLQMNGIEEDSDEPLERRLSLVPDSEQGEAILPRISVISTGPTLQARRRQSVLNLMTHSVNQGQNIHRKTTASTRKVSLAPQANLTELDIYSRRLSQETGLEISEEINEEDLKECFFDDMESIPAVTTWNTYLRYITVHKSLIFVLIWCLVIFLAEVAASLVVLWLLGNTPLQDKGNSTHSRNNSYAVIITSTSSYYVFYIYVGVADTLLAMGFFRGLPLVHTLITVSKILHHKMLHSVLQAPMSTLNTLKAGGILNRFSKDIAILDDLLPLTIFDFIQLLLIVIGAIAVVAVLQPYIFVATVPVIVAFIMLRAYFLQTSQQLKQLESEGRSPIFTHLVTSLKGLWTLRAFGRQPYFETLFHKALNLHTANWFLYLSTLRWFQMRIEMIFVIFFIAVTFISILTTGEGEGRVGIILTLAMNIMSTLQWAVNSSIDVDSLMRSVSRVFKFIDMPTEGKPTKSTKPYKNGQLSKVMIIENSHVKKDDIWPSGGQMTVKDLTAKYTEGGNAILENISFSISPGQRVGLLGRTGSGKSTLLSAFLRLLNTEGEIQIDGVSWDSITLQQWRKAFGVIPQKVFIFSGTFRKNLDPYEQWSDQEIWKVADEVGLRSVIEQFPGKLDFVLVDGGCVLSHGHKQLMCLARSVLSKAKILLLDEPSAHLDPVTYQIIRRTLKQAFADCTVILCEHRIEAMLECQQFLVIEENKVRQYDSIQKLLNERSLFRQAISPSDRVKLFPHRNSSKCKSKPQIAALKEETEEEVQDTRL

One may read the EC50 as the concentration giving half of the maximal effect. The Emax is the maximal effect, on the per cent scale that the assay sets. As for `Cc1cc(CCNC(=O)[C@@H]2CC(=O)N(C)[C@@H](CC(C)C)C(=O)N(C)C3(CC3)C(=O)N[C@H](Cc3ccccc3)COc3cnc4c(F)cccc4c3C(=O)N2)on1` [Example 440, (3′S,7′S,13′R)-13′-benzyl-18′-fluoro-7′-isobutyl-6′,9′-dimethyl-N-(2-(3-methylisoxazol-5-yl)ethyl)-1′,5′,8′,11′-tetraoxo-2′,3′,4′,5′,6′,7′,8′,9′,11′,12′,13′,14′-dodecahydro-1′H-spiro[cyclopropane-1,10′-[1]oxa[4,7,10,14]tetraazacycloheptadecino[17,16-c]quinoline]-3′-carboxamide], the EC50 is 788 nM and the Emax was 296%.

In the case of `COc1cccc(CCNC(=O)[C@@H]2CC(=O)N(C)[C@@H](CC(C)C)C(=O)N(C)CC(=O)N[C@H](Cc3ccccc3)COc3ccc4ncccc4c3C(=O)N2)c1` [Example 441, (3S,7S,13R)-13-benzyl-7-isobutyl-N-(3-methoxyphenethyl)-6,9-dimethyl-1,5,8,11-tetraoxo-1,2,3,4,5,6,7,8,9,10,11,12,13,14-tetradecahydro-[1]oxa[4,7,10,14]tetraazacycloheptadecino[16,17-f]quinoline-3-carboxamide], the EC50 is 815 nM and the Emax is 326%.

As to `COc1cccc(CCNC(=O)[C@@H]2CC(=O)N(C)[C@@H](CC(C)C)C(=O)N(C)C3(CC3)C(=O)N[C@H](Cc3ccccc3)COc3nc4ccccn4c3C(=O)N2)c1` [Example 442, (3′R,9′S,13′S)-3′-benzyl-9′-isobutyl-N-(3-methoxyphenethyl)-7′,10′-dimethyl-5′,8′,11′,15′-tetraoxo-2′,3′,4′,5′,8′,9′,10′,11′,12′,13′,14′,15′-dodecahydro-7′H-spiro[cyclopropane-1,6′-pyrido[2′,11:2,3]imidazo[4,5-p][1]oxa[4,7,10,14]tetraazacycloheptadecine]-13′-carboxamide], the EC50 was determined as 443 nM and the Emax was 154%.

As to `Cc1cc(CCNC(=O)[C@@H]2CC(=O)N(C)[C@@H](CC(C)C)C(=O)N3CCCC[C@@H]3C(=O)N[C@H](Cc3ccccc3)COc3cnc4c(F)cccc4c3C(=O)N2)on1` [Example 443, (9S,13S,19aR,22R)-22-benzyl-3-fluoro-13-isobutyl-12-methyl-N-(2-(3-methylisoxazol-5-yl)ethyl)-7,11,14,20-tetraoxo-7,8,9,10,11,12,13,14,17,18,19,19a,20,21,22,23-hexadecahydro-16H-pyrido[2′,1′:6,7][1]oxa[4,7,10,14]tetraazacycloheptadecino[17,16-c]quinoline-9-carboxamide], the EC50 came to 316 nM and the Emax was 275%.

As for `Cc1cc(CCNC(=O)[C@@H]2CC(=O)N(C)[C@@H](CC(C)C)C(=O)N3CCCC[C@@H]3C(=O)N[C@H](Cc3ccccc3)COc3ccnc(C)c3C(=O)N2)on1` [Example 444, (7S,11S,17aR,20R)-20-benzyl-11-isobutyl-4,10-dimethyl-N-(2-(3-methylisoxazol-5-yl)ethyl)-5,9,12,18-tetraoxo-5,6,7,8,9,10,11,12,15,16,17,17a,18,19,20,21-hexadecahydro-14H-dipyrido[2,1-f:3′,4′-p][1]oxa[4,7,10,14]tetraazacycloheptadecine-7-carboxamide], the 50% effective concentration (EC50) came out at 1050 nM and the maximal response (Emax) came out at 199%.

For `Cc1cc(CCNC(=O)[C@@H]2CC(=O)N(C)[C@@H](CC(C)C)C(=O)N(C[C@H]3CCCCO3)CC(=O)N[C@H](Cc3ccccc3)COc3cnc4ccccc4c3C(=O)N2)on1` [Example 445, (3S,7S,13R)-13-benzyl-7-isobutyl-6-methyl-N-(2-(3-methylisoxazol-5-yl)ethyl)-1,5,8,11-tetraoxo-9-(((R)-tetrahydro-2H-pyran-2-yl)methyl)-1,2,3,4,5,6,7,8,9,10,11,12,13,14-tetradecahydro-[1]oxa[4,7,10,14]tetraazacycloheptadecino[17,16-c]quinoline-3-carboxamide], the EC50 worked out at 958 nM and the Emax came to 194%.

Regarding `Cc1cc(CCNC(=O)[C@@H]2CC(=O)N(C)[C@@H](CC(C)C)C(=O)N(CC[C@@H]3CCCCO3)CC(=O)N[C@H](Cc3ccccc3)COc3cnc4ccccc4c3C(=O)N2)on1` [Example 446, (3S,7S,13R)-13-benzyl-7-isobutyl-6-methyl-N-(2-(3-methylisoxazol-5-yl)ethyl)-1,5,8,11-tetraoxo-9-(2-((S)-tetrahydro-2H-pyran-2-yl)ethyl)-1,2,3,4,5,6,7,8,9,10,11,12,13,14-tetradecahydro-[1]oxa[4,7,10,14]tetraazacycloheptadecino[17,16-c]quinoline-3-carboxamide], the EC50 was 900 nM and the Emax is 248%.

As to `COc1cccc(CCNC(=O)[C@@H]2CC(=O)N(C)[C@@H](CC(C)C)C(=O)N(C)C3(CC3)C(=O)N[C@H](Cc3ccccc3)COc3ccc4c(c3C(=O)N2)OCC4)c1` [Example 447, (8R,14S,18S)-8-benzyl-14-isobutyl-N-(3-methoxyphenethyl)-12,15-dimethyl-10,13,16,20-tetraoxo-2,3,7,8,9,10,13,14,15,16,17,18,19,20-tetradecahydro-12H-spiro[benzofuro[7,6-p][1]oxa[4,7,10,14]tetraazacycloheptadecine-11,1′-cyclopropane]-18-carboxamide], the EC50 turned out to be 447 nM and the Emax turned out to be 220%.

In the case of `Cc1cc(CCNC(=O)[C@@H]2CC(=O)N(C)[C@@H](CC(C)C)C(=O)N(C)C3(CC3)C(=O)N[C@H](Cc3ccccc3)COc3nc4ccccn4c3C(=O)N2)on1` [Example 448, (3′R,9′S,13′S)-3′-benzyl-9′-isobutyl-7′,10′-dimethyl-N-(2-(3-methylisoxazol-5-yl)ethyl)-5′,8′,11′,15′-tetraoxo-2′,3′,4′,5′,8′,9′,10′,11′,12′,13′,14′,15′-dodecahydro-7′H-spiro[cyclopropane-1,6′-pyrido[2′,11:2,3]imidazo[4,5-p][1]oxa[4,7,10,14]tetraazacycloheptadecine]-13′-carboxamide], the concentration giving a half-maximal response (EC50) was determined as 961 nM and the Emax is 109%.

On to `COc1cccc(CCNC(=O)[C@@H]2CC(=O)N(C)[C@@H](CC(C)C)C(=O)N(C)CC(=O)N[C@H](Cc3ccccc3)COc3nc4ccccn4c3C(=O)N2)c1` [Example 449, (3R,9S,13S)-3-benzyl-9-isobutyl-N-(3-methoxyphenethyl)-7,10-dimethyl-5,8,11,15-tetraoxo-2,3,4,5,6,7,8,9,10,11,12,13,14,15-tetradecahydropyrido[2′,1′:2,3]imidazo[4,5-p][1]oxa[4,7,10,14]tetraazacycloheptadecine-13-carboxamide], for which the EC50 is 543 nM and the Emax came out at 165%.

In the case of `COc1cccc(CCNC(=O)[C@@H]2CC(=O)N(C)[C@@H](CC(C)C)C(=O)N(C)CC(=O)N[C@H](Cc3ccccc3)COc3ccc4c(c3C(=O)N2)CCO4)c1` [Example 450, (3S,7S,13R)-13-benzyl-7-isobutyl-N-(3-methoxyphenethyl)-6,9-dimethyl-1,5,8,11-tetraoxo-1,2,3,4,5,6,7,8,9,10,11,12,13,14,19,20-hexadecahydrobenzofuro[4,5-p][1]oxa[4,7,10,14]tetraazacycloheptadecine-3-carboxamide], the EC50 came to 379 nM and the maximum response (Emax) is 107%.

With `COc1cccc(CCNC(=O)[C@@H]2CC(=O)N(C)[C@@H](CC(C)C)C(=O)N3CCN(CCCO)C[C@@H]3C(=O)N[C@H](Cc3ccccc3)COc3ccc4ccccc4c3C(=O)N2)c1` [Example 451, (4aR,7R,18S,22S)-7-benzyl-3-(3-hydroxypropyl)-22-isobutyl-N-(3-methoxyphenethyl)-21-methyl-5,16,20,23-tetraoxo-2,3,4,4a,5,6,7,8,16,17,18,19,20,21,22,23-hexadecahydro-1H-naphtho[1,2-p]pyrazino[2,1-f][1]oxa[4,7,10,14]tetraazacycloheptadecine-18-carboxamide], the EC50 stood at 257 nM and the Emax is 307%.

On to `Cc1cc(CCNC(=O)[C@@H]2CC(=O)N(C)[C@@H](CC(C)C)C(=O)N3CCN(CCCO)C[C@@H]3C(=O)N[C@H](Cc3ccccc3)COc3ccc4ccccc4c3C(=O)N2)on1` [Example 452, (4aR,7R,18S,22S)-7-benzyl-3-(3-hydroxypropyl)-22-isobutyl-21-methyl-N-(2-(3-methylisoxazol-5-yl)ethyl)-5,16,20,23-tetraoxo-2,3,4,4a,5,6,7,8,16,17,18,19,20,21,22,23-hexadecahydro-1H-naphtho[1,2-p]pyrazino[2,1-f][1]oxa[4,7,10,14]tetraazacycloheptadecine-18-carboxamide], for which the EC50 turned out to be 886 nM and the Emax turned out to be 292%.

`CC(C)C[C@H]1C(=O)N(C)C2(CC2)C(=O)N[C@H](Cc2ccccc2)COc2cnc3ccccc3c2C(=O)N[C@H](C(=O)NCCc2cccc(-n3nccn3)c2)CC(=O)N1C` [Example 453, (3′S,7′S,13′R)-N-(3-(2H-1,2,3-triazol-2-yl)phenethyl)-13′-benzyl-7′-isobutyl-6′,9′-dimethyl-1′,5′,8′,11′-tetraoxo-2′,3′,4′,5′,6′,7′,8′,9′,11′,12′,13′,14′-dodecahydro-1′H-spiro[cyclopropane-1,10′-[1]oxa[4,7,10,14]tetraazacycloheptadecino[17,16-c]quinoline]-3′-carboxamide]: the EC50 was found to be 417 nM and the Emax is 251%.

Consider `CC(C)C[C@H]1C(=O)N(C)C2(CC2)C(=O)N[C@H](Cc2ccccc2)COc2cnc3ccccc3c2C(=O)N[C@H](C(=O)NCCc2ccc(-n3nccn3)cc2)CC(=O)N1C` [Example 454, (3′S,7′S,13′R)-N-(4-(2H-1,2,3-triazol-2-yl)phenethyl)-13′-benzyl-7′-isobutyl-6′,9′-dimethyl-1′,5′,8′,11′-tetraoxo-2′,3′,4′,5′,6′,7′,8′,9′,11′,12′,13′,14′-dodecahydro-1′H-spiro[cyclopropane-1,10′-[1]oxa[4,7,10,14]tetraazacycloheptadecino[17,16-c]quinoline]-3′-carboxamide], for which the EC50 is 234 nM and the Emax is 236%.
